Experimental data from patent publication US9884048B2, “ERK inhibitors” (Merck Sharp & Dohme Corp., priority 2014, dated 2018).

Target: phosphorylated active hERK2 enzyme (Homo sapiens (Human), UniProt P28482)
Details: not given

Sequence of phosphorylated active hERK2 enzyme (P28482 whole entry): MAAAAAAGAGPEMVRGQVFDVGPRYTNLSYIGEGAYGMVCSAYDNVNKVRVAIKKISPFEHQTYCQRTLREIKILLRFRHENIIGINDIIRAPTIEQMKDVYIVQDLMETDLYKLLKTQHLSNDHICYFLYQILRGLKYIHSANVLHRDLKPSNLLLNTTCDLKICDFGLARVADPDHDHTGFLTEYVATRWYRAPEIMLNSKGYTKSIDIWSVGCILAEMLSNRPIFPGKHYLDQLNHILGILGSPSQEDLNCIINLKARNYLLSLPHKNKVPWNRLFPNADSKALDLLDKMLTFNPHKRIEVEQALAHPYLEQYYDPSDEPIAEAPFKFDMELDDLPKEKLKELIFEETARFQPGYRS

IC50	SMILES
285 nM	C[C@@H](NC(=O)Nc1cc2cnn(CC3CCOCC3)c2c(CO)n1)c1ccccc1 [Example 309, 1-[7-(hydroxymethyl)-1-(tetrahydro-2H-pyran-4-ylmethyl)-1H-pyrazolo[3,4-c]pyridin-5-yl]-3-[(1R)-1-phenylethyl]urea]
180 nM	CCO[C@H]1CCCC[C@@H]1NC(=O)Nc1cc2cnn(-c3ccnc(C)c3)c2cn1 (racemic) [Example 146, Racemic 1-[(1S,2S) and (1R,2R)-2-ethoxycyclohexyl]-3-[1-(2-methylpyridin-4-yl)-1H-pyrazolo[3,4-c]pyridin-5-yl]urea]

Same assay, conditions: ERK2 IC50, IMAP-FP assay; 0.5 nM hERK2, 30 μM ATP; 10 point titration, 3 μM starting concentration

IC50	SMILES
65.7 nM	Cc1cc(-n2ncc3cc(NC(=O)N[C@H]4CCCC[C@@H]4c4ccccc4)ncc32)ccn1 (racemic) [Example 169, Racemic trans 1-[1-(2-methylpyridin-4-yl)-1H-pyrazolo[3,4-c]pyridin-5-yl]-3-[(1S,2R) and (1R,2S)-2-phenylcyclohexyl]urea]

Same assay, conditions: read-out: ERK2 IC50; IMAP-FP assay; 0.5 nM hERK2, 30 μM ATP; 10 point titration, 3 μM starting concentration

IC50	SMILES
0.997 nM	Cc1cc(-n2ncc3cc(NC(=O)NC4CCN(Cc5c(F)cccc5F)C4)ncc32)ccn1 (stereo not shown) [Example 271, 1-[1-(2,6-difluorobenzyl)pyrrolidin-3-yl]-3-[1-(2-methylpyridin-4-yl)-1H-pyrazolo[3,4-c]pyridin-5-yl]urea]
1.13 nM	Cc1cc(-n2ncc3cc(NC(=O)N[C@H]4CN(C)C[C@@H]4c4ccc(C5CC5)s4)ncc32)ccn1 [Example 164, 1-[(3R,4S)-4-(5-cyclopropylthiophen-2-yl)-1-methylpyrrolidin-3-yl]-3-[1-(2-methylpyridin-4-yl)-1H-pyrazolo[3,4-c]pyridin-5-yl]urea]
10.3 nM	Cc1cc(-n2ncc3cc(NC(=O)N[C@H](C)c4ccccc4)nc(CO)c32)ccn1 [Example 300, 1-[7-(Hydroxymethyl)-1-(2-methylpyridin-4-yl)-1H-pyrazolo[3,4-c]pyridin-5-yl]-3-[(1R)-1-phenylethyl]urea]
32.6 nM	Cc1cc(-n2ncc3cc(NC(=O)N[C@H]4CN(C)C[C@@H]4c4cc(C)on4)ncc32)ccn1 [Example 150, 1-[(3R,4S)-1-methyl-4-(5-methylisoxazol-3-yl)pyrrolidin-3-yl]-3-[1-(2-methylpyridin-4-yl)-1H-pyrazolo[3,4-c]pyridin-5-yl]urea]
10.5 nM	Cc1cc(-n2ncc3cc(NC(=O)NC4CNCC(c5ccccc5)C4)ncc32)ccn1 (stereo not shown) [Example 288, 1-[1-(2-methylpyridin-4-yl)-1H-pyrazolo[3,4-c]pyridin-5-yl]-3-(5-phenylpiperidin-3-yl)urea]
158 nM	C[C@@H](NC(=O)Nc1cc2cnn(CC3CCOC3)c2c(CO)n1)c1ccccc1 (stereo partly drawn) [Example 311, 1-[7-(hydroxymethyl)-1-(tetra-hydrofuran-3-ylmethyl)-1H-pyrazolo[3,4-c]pyridin-5-yl]-3-[(1R)-1-phenylethyl]urea]
594 nM	CCN1C[C@H](NC(=O)Nc2cc3cnn(-c4ccnc(C)c4)c3cn2)[C@@H](Oc2cncc(F)c2)C1 [Example 277, 1-{(3S,4S)-1-ethyl-4-[(5-fluoropyridin-3-yl)oxy]pyrrolidin-3-yl}-3-[1-(2-methylpyridin-4-yl)-1H-pyrazolo[3,4-c]pyridin-5-yl]urea]
17.6 nM	COC(=O)NCc1nc(NC(=O)N[C@H](C)c2ccccc2)cc2cnn(-c3ccc(F)cc3)c12 [Example 326, Methyl {[1-(4-fluorophenyl)-5-({[(1R)-1-phenylethyl]carbamoyl}amino)-1H-pyrazolo[3,4-c]pyridin-7-yl]methyl}carbamate]
43.7 nM	CCCn1ncc2cc(NC(=O)N[C@H](C)c3ccccc3)nc(CO)c21 [Example 305, 1-[7-(hydroxymethyl)-1-propyl-1H-pyrazolo[3,4-c]pyridin-5-yl]-3-[(1R)-1-phenylethyl]urea]
0.182 nM	Cc1cc(-n2ncc3cc(NC(=O)N[C@H]4CN(C)C[C@@H]4CCc4ccccc4)ncc32)ccn1 [Example 185, 1-[(3R,4S)-1-methyl-4-(2-phenylethyl)pyrrolidin-3-yl]-3-[1-(2-methylpyridin-4-yl)-1H-pyrazolo[3,4-c]pyridin-5-yl]urea]

The remaining lines, values behind:

SMILES	IC50
Cc1cc(-n2ncc3cc(NC(=O)NC4CCN(c5ccccc5)CC4)ncc32)ccn1 [Example 78, 1-[1-(2-methylpyridin-4-yl)-1H-pyrazolo[3,4-c]pyridin-5-yl]-3-(1-phenylpiperidin-4-yl)urea]	1740 nM
Cc1cc(-n2ncc3cc(NC(=O)N[C@H]4CN(C)C[C@@H]4[C@@H]4CCCOC4)ncc32)ccn1 [Example 24, 1-[1-(2-methylpyridin-4-yl)-1H-pyrazolo[3,4-c]pyridin-5-yl]-3-{(3R,4S)-1-methyl-4-[(3S)-tetrahydro-2H-pyran-3-yl]pyrrolidin-3-yl}urea]	140 nM
Cc1cc(-n2ncc3cc(NC(=O)N[C@@H]4CN(C)C[C@H]4c4nc(C)cs4)ncc32)ccn1 [Example 126, 1-[(3S,4R)-1-methyl-4-(4-methyl-1,3-thiazol-2-yl)pyrrolidin-3-yl]-3-[1-(2-methylpyridin-4-yl)-1H-pyrazolo[3,4-c]pyridin-5-yl)urea]	15.8 nM
Cc1cc(-n2ncc3cc(NC(=O)NC(C)(C)c4ccccc4)ncc32)ccn1 [Example 122, 1-(1-methyl-1-phenylethyl)-3-[1-(2-methylpyridin-4-yl)-1H-pyrazolo[3,4-c]pyridin-5-yl]urea]	56.8 nM
Cc1cc(-n2ncc3cc(NC(=O)NCc4ccc(C(C)(C)O)cc4)ncc32)ccn1 [Example 86, 1-[4-(1-hydroxy-1-methylethyl)benzyl]-3-[1-(2-methylpyridin-4-yl)-1H-pyrazolo[3,4-c]pyridin-5-yl)urea]	731 nM
Cc1cc(-n2ncc3cc(NC(=O)NCc4c(-c5ccccc5)noc4C)ncc32)ccn1 [Example 114, 1-[(5-methyl-3-phenyl-isoxazol-4-yl)methyl]-3-[1-(2-methylpyridin-4-yl)-1H-pyrazolo[3,4-c]pyridin-5-yl)urea]	2.14 nM
Cc1cc(-n2ncc3cc(NC(=O)NC4CCN(C)C4=O)ncc32)ccn1 (stereo not shown) [Example 23, 1-(1-methyl-2-oxopyrrolidin-3-yl)-3-[1-(2-methylpyridin-4-yl)-1H-pyrazolo[3,4-c]pyridin-5-yl)urea]	314 nM
Cc1cc(-n2ncc3cc(NC(=O)N[C@H](CN(C)C)c4ccccc4)ncc32)ccn1 [Example 130, 1-[(1S)-2-(dimethylamino)-1-phenylethyl]-3-[1-(2-methylpyridin-4-yl)-1H-pyrazolo[3,4-c]pyridin-5-yl)urea]	123 nM
Cc1cc(-n2ncc3cc(NC(=O)NCc4cccc(-c5ccon5)c4)ncc32)ccn1 [Example 98, 1-(3-isoxazol-3-ylbenzyl)-3-[1-(2-methylpyridin-4-yl)-1H-pyrazolo[3,4-c]pyridin-5-yl]urea]	1.68 nM
Cc1cc(-n2ncc3cc(NC(=O)NC4CCNC4)ncc32)ccn1 (stereo not shown) [Example 133, 1-[1-(2-methylpyridin-4-yl)-1H-pyrazolo[3,4-c]pyridin-5-yl]-3-pyrrolidin-3-ylurea]	456 nM
Cc1cc(-n2ncc3cc(NC(=O)NC(CCN(C)C)c4ccccc4)ncc32)ccn1 (stereo not shown) [Example 51, 1-[3-(dimethylamino)-1-phenylpropyl]-3-[1-(2-methylpyridin-4-yl)-1H-pyrazolo[3,4-c]pyridin-5-yl)urea]	2.7 nM
Cc1cc(-n2ncc3cc(NC(=O)NCC4(c5ccccc5)CCOCC4)ncc32)ccn1 [Example 52, 1-[1-(2-methylpyridin-4-yl)-1H-pyrazolo[3,4-c]pyridin-5-yl]-3-[(4-phenyltetrahydro-2H-pyran-4-yl)methyl]urea]	7.09 nM
